Data as given in BigSolDB 2.1.

Nc1c([N+](=O)[O-])c2no[n+]([O-])c2c2no[n+]([O-])c12
solubility (mole fraction)
Settings	288.15 K	293.15 K	298.15 K	303.15 K	308.15 K	313.15 K	318.15 K	323.15 K	328.15 K	333.15 K
in 1,2-dichloroethane	2.98e-05	3.64e-05	4.41e-05	5.31e-05	6.32e-05	7.49e-05	8.9e-05	0.000105	0.000122	0.000142
in DMF	0.00618	0.00747	0.00896	0.0107	0.0126	0.0149	0.0175	0.0204	0.0236	0.0273
in DMSO	–	0.0118	0.0138	0.0161	0.0187	0.0217	0.0249	0.0286	0.0327	0.0373
in NMP	0.00799	0.00948	0.0112	0.0131	0.0153	0.0178	0.0206	0.0237	0.0272	0.031
in acetic acid	–	7.86e-05	9.36e-05	0.000112	0.000131	0.000154	0.000178	0.000206	0.000237	0.000271
in acetone	0.000797	0.00087	0.000968	0.00109	0.00123	0.00137	0.00154	0.00174	–	–
in acetonitrile	0.000322	0.000374	0.000434	0.000497	0.00057	0.000654	0.000744	0.000845	0.000956	0.00108
in cyclohexanone	0.0018	0.00198	0.00218	0.0024	0.00266	0.00295	0.00328	0.00366	0.00409	0.00457
in dichloromethane	1.37e-05	1.73e-05	2.15e-05	2.68e-05	3.31e-05	–	–	–	–	–
in ethanol	6.85e-06	8.94e-06	1.18e-05	1.52e-05	1.95e-05	2.47e-05	3.14e-05	3.94e-05	4.92e-05	6.02e-05
in ethyl acetate	0.000211	0.000244	0.00028	0.000321	0.000367	0.000419	0.000475	0.000536	0.000605	0.000681
in methanol	1.44e-05	1.88e-05	2.42e-05	3.14e-05	4.01e-05	5.01e-05	6.33e-05	7.91e-05	9.73e-05	0.000121
in o-xylene	2.4e-05	3.15e-05	4.14e-05	5.34e-05	6.87e-05	8.74e-05	0.000109	0.000137	0.000169	0.000208
in propionic acid	1.94e-05	2.45e-05	3.15e-05	3.97e-05	4.97e-05	6.16e-05	7.63e-05	9.37e-05	0.000114	0.00014
in toluene	1.03e-05	1.34e-05	1.84e-05	2.45e-05	3.26e-05	4.29e-05	5.63e-05	7.28e-05	9.4e-05	0.00012
